Reference: patent publication US20260217767A1, “NOVEL A4B7 THIOETHER PEPTIDE DIMER ANTAGONISTS” (Protagonist Therapeutics, Inc., priority 2014, published 2026)
*1 amine or outer side, *2 acyl side, *3 side chain or, on linkers, in order; H or OH if unused. Where a SMILES comes first, the peptide text is derived from it. Bridges are numbered along the chain shown (N, C = ends). Roman numbers before positions name the chains, in order. [ ]: non-standard residue; d: D form. Phe(4-CF3) = N[C@@H](Cc1ccc(C(F)(F)F)cc1)C(=O)O; Bip = N[C@@H](Cc1ccc(-c2ccccc2)cc1)C(=O)O; 1Nal = N[C@@H](Cc1cccc2ccccc12)C(=O)O; Diglycolyl = O=C(COCC(=O)[*:2])[*:1]; NMeR = CN[C@@H](CCCNC(=N)N)C(=O)O; Tic = O=C(O)[C@@H]1Cc2ccccc2CN1; X1 = O=C(c1ccccc1C[*:2])[*:1]; Pen = CC(C)(S)[C@H](N)C(=O)O

Each molecule was assayed against T1, rh integrin α4β7 (Homo sapiens, UniProt P13612+P26010) (assay: α4β7-MAdCAM Competition ELISA). Conditions: thioether peptide dimers, Table 7; read-out: ELISA A4B7.
T1 construct: purchased R&D Systems 5397-A30
T1 sequence (P13612 34-977 limits assumed): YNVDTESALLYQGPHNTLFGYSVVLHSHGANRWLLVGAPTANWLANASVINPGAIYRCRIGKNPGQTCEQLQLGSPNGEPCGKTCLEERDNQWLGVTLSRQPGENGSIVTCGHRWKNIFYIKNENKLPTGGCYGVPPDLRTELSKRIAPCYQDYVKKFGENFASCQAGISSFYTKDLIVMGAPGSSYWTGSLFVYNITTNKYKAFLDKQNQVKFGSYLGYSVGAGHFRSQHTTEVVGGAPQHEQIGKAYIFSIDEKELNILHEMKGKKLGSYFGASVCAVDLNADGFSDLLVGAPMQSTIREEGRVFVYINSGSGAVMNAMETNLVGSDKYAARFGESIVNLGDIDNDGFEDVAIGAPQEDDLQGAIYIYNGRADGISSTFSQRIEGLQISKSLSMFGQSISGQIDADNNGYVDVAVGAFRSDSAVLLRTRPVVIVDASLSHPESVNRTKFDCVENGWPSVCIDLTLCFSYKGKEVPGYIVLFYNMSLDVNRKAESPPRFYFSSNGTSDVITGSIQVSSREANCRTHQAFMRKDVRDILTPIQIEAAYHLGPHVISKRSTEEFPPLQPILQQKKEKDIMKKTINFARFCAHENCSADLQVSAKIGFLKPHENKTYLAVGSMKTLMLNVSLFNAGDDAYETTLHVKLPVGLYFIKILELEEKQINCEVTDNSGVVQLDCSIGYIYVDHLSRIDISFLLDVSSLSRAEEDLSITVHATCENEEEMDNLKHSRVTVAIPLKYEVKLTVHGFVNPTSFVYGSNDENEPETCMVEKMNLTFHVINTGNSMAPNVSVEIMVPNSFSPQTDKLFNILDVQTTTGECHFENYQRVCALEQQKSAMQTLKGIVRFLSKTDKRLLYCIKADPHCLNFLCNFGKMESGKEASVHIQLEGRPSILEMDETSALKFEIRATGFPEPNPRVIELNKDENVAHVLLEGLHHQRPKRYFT
T1 sequence (P26010 20-723 limits assumed): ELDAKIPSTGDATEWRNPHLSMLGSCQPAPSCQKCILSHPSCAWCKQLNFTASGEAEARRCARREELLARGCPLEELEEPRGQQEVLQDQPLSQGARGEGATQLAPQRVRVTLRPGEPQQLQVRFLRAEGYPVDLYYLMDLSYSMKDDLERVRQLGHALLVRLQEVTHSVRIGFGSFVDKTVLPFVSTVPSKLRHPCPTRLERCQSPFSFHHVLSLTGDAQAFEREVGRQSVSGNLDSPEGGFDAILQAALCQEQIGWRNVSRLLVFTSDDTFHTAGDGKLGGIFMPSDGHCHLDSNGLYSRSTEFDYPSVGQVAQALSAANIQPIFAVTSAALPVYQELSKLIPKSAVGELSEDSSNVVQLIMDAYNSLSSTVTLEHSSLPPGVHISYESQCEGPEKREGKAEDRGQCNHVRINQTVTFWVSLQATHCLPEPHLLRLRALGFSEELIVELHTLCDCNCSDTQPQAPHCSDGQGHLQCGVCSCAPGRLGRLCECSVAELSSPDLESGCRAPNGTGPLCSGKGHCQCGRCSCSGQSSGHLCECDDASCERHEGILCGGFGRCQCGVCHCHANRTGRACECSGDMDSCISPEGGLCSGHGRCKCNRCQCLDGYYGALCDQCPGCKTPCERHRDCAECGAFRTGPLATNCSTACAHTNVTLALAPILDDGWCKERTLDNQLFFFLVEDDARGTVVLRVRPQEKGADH
Format: binding
In short: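 Recombinant human α4β7 captured on nickel-coated plates, then incubated 1 h at room temperature with serially diluted peptides (final top 10 μM) and 10 nM final MAdCAM-1 in Tris pH 7.6 buffer with 1 mM MnCl2 or MgCl2. Bound MAdCAM-1 detected with anti-human IgG1-HRP and TMB, absorbance at 450 nm.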
`CC(C)C[C@@H]1NC(=O)[C@H]([C@@H](C)O)NC(=O)[C@H](CC(=O)O)NC(=O)[C@H](CO)NC(=O)[C@H](CCCNC(=N)N)N(C)C(=O)c2ccccc2CSC(C)(C)[C@@H](C(=O)N[C@@H](Cc2cccc3ccccc23)C(=O)N[C@H](CCC(=O)O)C(=O)N[C@H](CCCCNC(=O)COCC(=O)NCCCC[C@@H](NC(=O)[C@@H](CCC(=O)O)NC(=O)[C@H](Cc2cccc3ccccc23)NC(=O)[C@H]2NC(=O)[C@H](CC(C)C)NC(=O)[C@H]([C@@H](C)O)NC(=O)[C@H](CC(=O)O)NC(=O)[C@H](CO)NC(=O)[C@H](CCCNC(=N)N)N(C)C(=O)c3ccccc3CSC2(C)C)C(N)=O)C(N)=O)NC1=O` [compound 158] (I: [NMeR]SDTL[Pen][1Nal][dE][dK]-NH2 / II: [NMeR]SDTL[Pen][1Nal][dE][dK]-NH2; linker I:9-II:9 via Diglycolyl; linker I:N-I:6, II:N-II:6 via X1) gave an IC50 of less than 0.025 µM.
Work on `CC(C)C[C@@H]1NC(=O)[C@H]([C@@H](C)O)NC(=O)[C@H](CC(=O)O)NC(=O)[C@H](CO)NC(=O)[C@H](CCCNC(=N)N)N(C)C(=O)c2ccccc2CSC(C)(C)[C@@H](C(=O)N[C@@H](Cc2ccc(C(F)(F)F)cc2)C(=O)N[C@@H](CCC(=O)O)C(=O)N[C@H](CCCCNC(=O)COCC(=O)NCCCC[C@@H](NC(=O)[C@H](CCC(=O)O)NC(=O)[C@H](Cc2ccc(C(F)(F)F)cc2)NC(=O)[C@H]2NC(=O)[C@H](CC(C)C)NC(=O)[C@H]([C@@H](C)O)NC(=O)[C@H](CC(=O)O)NC(=O)[C@H](CO)NC(=O)[C@H](CCCNC(=N)N)N(C)C(=O)c3ccccc3CSC2(C)C)C(N)=O)C(N)=O)NC1=O` [compound 166] (I: [NMeR]SDTL[Pen][Phe(4-CF3)]E[dK]-NH2 / II: [NMeR]SDTL[Pen][Phe(4-CF3)]E[dK]-NH2; linker I:9-II:9 via Diglycolyl; linker I:N-I:6, II:N-II:6 via X1) yielded an IC50 of less than 0.025 µM.
Work on `CC(C)C[C@@H]1NC(=O)[C@H]([C@@H](C)O)NC(=O)[C@H](CC(=O)O)NC(=O)[C@H](CO)NC(=O)[C@H](CCCNC(=N)N)N(C)C(=O)c2ccccc2CSC(C)(C)[C@@H](C(=O)N[C@@H](Cc2cccc3ccccc23)C(=O)N[C@@H](CCC(=O)O)C(=O)N[C@H](CCCCNC(=O)COCC(=O)NCCCC[C@@H](NC(=O)[C@H](CCC(=O)O)NC(=O)[C@H](Cc2cccc3ccccc23)NC(=O)[C@H]2NC(=O)[C@H](CC(C)C)NC(=O)[C@H]([C@@H](C)O)NC(=O)[C@H](CC(=O)O)NC(=O)[C@H](CO)NC(=O)[C@H](CCCNC(=N)N)N(C)C(=O)c3ccccc3CSC2(C)C)C(N)=O)C(N)=O)NC1=O` [compound 167] (I: [NMeR]SDTL[Pen][1Nal]E[dK]-NH2 / II: [NMeR]SDTL[Pen][1Nal]E[dK]-NH2; linker I:9-II:9 via Diglycolyl; linker I:N-I:6, II:N-II:6 via X1) yielded an IC50 of less than 0.025 µM.
In the case of `CC(C)C[C@@H]1NC(=O)[C@H]([C@@H](C)O)NC(=O)[C@H](CC(=O)O)NC(=O)[C@H](CO)NC(=O)[C@H](CCCNC(=N)N)N(C)C(=O)c2ccccc2CSC(C)(C)[C@@H](C(=O)N[C@@H](Cc2ccc(-c3ccccc3)cc2)C(=O)N[C@H](CCC(=O)O)C(=O)N[C@H](CCCCN)C(N)=O)NC1=O` [compound 178] (HELM PEPTIDE1{[meR].S.D.T.L.[Pen].[O=C([C@H](Cc1ccc(-c2ccccc2)cc1)N[*:1])[*:2]].[dE].[dK].[am]}|CHEM1{[O=C(c1ccccc1C[*:2])[*:1]]}$PEPTIDE1,CHEM1,1:R1-1:R1|PEPTIDE1,CHEM1,6:R3-1:R2$$$V2.0), the IC50 is reported as less than 0.025 µM.
`CC(C)C[C@@H]1NC(=O)[C@H]([C@@H](C)O)NC(=O)[C@H](CC(=O)O)NC(=O)[C@H](CO)NC(=O)[C@H](CCCNC(=N)N)N(C)C(=O)c2ccccc2CSC[C@@H](C(=O)N2Cc3ccccc3C[C@H]2C(=O)N[C@H](CCC(=O)O)C(=O)N[C@H](CCCCNC(=O)COCC(=O)NCCCC[C@@H](NC(=O)[C@@H](CCC(=O)O)NC(=O)[C@@H]2Cc3ccccc3CN2C(=O)[C@@H]2CSCc3ccccc3C(=O)N(C)[C@@H](CCCNC(=N)N)C(=O)N[C@@H](CO)C(=O)N[C@@H](CC(=O)O)C(=O)N[C@@H]([C@@H](C)O)C(=O)N[C@@H](CC(C)C)C(=O)N2)C(N)=O)C(N)=O)NC1=O` [compound 184] (I: [NMeR]SDTLC[Tic][dE][dK]-NH2 / II: [NMeR]SDTLC[Tic][dE][dK]-NH2; linker I:9-II:9 via Diglycolyl; linker I:N-I:6, II:N-II:6 via X1) gave an IC50 of less than 0.025 µM.
For `CC(C)C[C@@H]1NC(=O)[C@H]([C@@H](C)O)NC(=O)[C@H](CC(=O)O)NC(=O)[C@H](CO)NC(=O)[C@H](CCCNC(=N)N)N(C)C(=O)c2ccccc2CSC(C)(C)[C@@H](C(=O)N[C@@H](Cc2ccccc2)C(=O)N[C@H](CCC(=O)O)C(=O)N[C@H](CCCCNC(=O)COCC(=O)NCCCC[C@@H](NC(=O)[C@@H](CCC(=O)O)NC(=O)[C@H](Cc2ccccc2)NC(=O)[C@H]2NC(=O)[C@H](CC(C)C)NC(=O)[C@H]([C@@H](C)O)NC(=O)[C@H](CC(=O)O)NC(=O)[C@H](CO)NC(=O)[C@H](CCCNC(=N)N)N(C)C(=O)c3ccccc3CSC2(C)C)C(=O)O)C(=O)O)NC1=O` [compound 204] (I: [NMeR]SDTL[Pen]F[dE][dK]-OH / II: [NMeR]SDTL[Pen]F[dE][dK]-OH; linker I:9-II:9 via Diglycolyl; linker I:N-I:6, II:N-II:6 via X1), the IC50 was less than 0.025 µM.
`CC(C)C[C@@H]1NC(=O)[C@H]([C@@H](C)O)NC(=O)[C@H](CC(=O)O)NC(=O)[C@H](CO)NC(=O)[C@H](CCCNC(=N)N)N(C)C(=O)c2ccccc2CSC[C@@H](C(=O)N2Cc3ccccc3C[C@H]2C(=O)N[C@H](CCC(=O)O)C(=O)N[C@H](CCCCNC(=O)COCC(=O)NCCCC[C@@H](NC(=O)[C@@H](CCC(=O)O)NC(=O)[C@@H]2Cc3ccccc3CN2C(=O)[C@@H]2CSCc3ccccc3C(=O)N(C)[C@@H](CCCNC(=N)N)C(=O)N[C@@H](CO)C(=O)N[C@@H](CC(=O)O)C(=O)N[C@@H]([C@@H](C)O)C(=O)N[C@@H](CC(C)C)C(=O)N2)C(=O)O)C(=O)O)NC1=O` [compound 207] (I: [NMeR]SDTLC[Tic][dE][dK]-OH / II: [NMeR]SDTLC[Tic][dE][dK]-OH; linker I:9-II:9 via Diglycolyl; linker I:N-I:6, II:N-II:6 via X1) showed an IC50 of less than 0.025 µM.
With `CC(C)C[C@@H]1NC(=O)[C@H]([C@@H](C)O)NC(=O)[C@H](CC(=O)O)NC(=O)[C@H](CO)NC(=O)[C@H](CCCNC(=N)N)N(C)C(=O)c2ccccc2CSC(C)(C)[C@@H](C(=O)N[C@@H](Cc2ccc(-c3ccccc3)cc2)C(=O)N[C@H](CCC(=O)O)C(=O)N[C@H](CCCCNC(=O)COCC(=O)NCCCC[C@@H](NC(=O)[C@@H](CCC(=O)O)NC(=O)[C@H](Cc2ccc(-c3ccccc3)cc2)NC(=O)[C@H]2NC(=O)[C@H](CC(C)C)NC(=O)[C@H]([C@@H](C)O)NC(=O)[C@H](CC(=O)O)NC(=O)[C@H](CO)NC(=O)[C@H](CCCNC(=N)N)N(C)C(=O)c3ccccc3CSC2(C)C)C(=O)O)C(=O)O)NC1=O` [compound 208] (I: [NMeR]SDTL[Pen][Bip][dE][dK]-OH / II: [NMeR]SDTL[Pen][Bip][dE][dK]-OH; linker I:9-II:9 via Diglycolyl; linker I:N-I:6, II:N-II:6 via X1) the IC50 was less than 0.025 µM.
